{
  "source": "patent US4665082A",
  "about": "“Cysteine delivery system” (Cornell Research Foundation, priority 1985, dated 1987)",
  "key": {"[1]": {"target": "T1, 5-oxo-L-prolinase (Rattus norvegicus, UniProt P97608)", "T1 construct": "5-Oxo-L-prolinase was isolated from rat kidney and freed of 5-oxoproline by gel filtration; from tissue; host or cells: rat kidney", "T1 sequence (P97608 1-1288)": "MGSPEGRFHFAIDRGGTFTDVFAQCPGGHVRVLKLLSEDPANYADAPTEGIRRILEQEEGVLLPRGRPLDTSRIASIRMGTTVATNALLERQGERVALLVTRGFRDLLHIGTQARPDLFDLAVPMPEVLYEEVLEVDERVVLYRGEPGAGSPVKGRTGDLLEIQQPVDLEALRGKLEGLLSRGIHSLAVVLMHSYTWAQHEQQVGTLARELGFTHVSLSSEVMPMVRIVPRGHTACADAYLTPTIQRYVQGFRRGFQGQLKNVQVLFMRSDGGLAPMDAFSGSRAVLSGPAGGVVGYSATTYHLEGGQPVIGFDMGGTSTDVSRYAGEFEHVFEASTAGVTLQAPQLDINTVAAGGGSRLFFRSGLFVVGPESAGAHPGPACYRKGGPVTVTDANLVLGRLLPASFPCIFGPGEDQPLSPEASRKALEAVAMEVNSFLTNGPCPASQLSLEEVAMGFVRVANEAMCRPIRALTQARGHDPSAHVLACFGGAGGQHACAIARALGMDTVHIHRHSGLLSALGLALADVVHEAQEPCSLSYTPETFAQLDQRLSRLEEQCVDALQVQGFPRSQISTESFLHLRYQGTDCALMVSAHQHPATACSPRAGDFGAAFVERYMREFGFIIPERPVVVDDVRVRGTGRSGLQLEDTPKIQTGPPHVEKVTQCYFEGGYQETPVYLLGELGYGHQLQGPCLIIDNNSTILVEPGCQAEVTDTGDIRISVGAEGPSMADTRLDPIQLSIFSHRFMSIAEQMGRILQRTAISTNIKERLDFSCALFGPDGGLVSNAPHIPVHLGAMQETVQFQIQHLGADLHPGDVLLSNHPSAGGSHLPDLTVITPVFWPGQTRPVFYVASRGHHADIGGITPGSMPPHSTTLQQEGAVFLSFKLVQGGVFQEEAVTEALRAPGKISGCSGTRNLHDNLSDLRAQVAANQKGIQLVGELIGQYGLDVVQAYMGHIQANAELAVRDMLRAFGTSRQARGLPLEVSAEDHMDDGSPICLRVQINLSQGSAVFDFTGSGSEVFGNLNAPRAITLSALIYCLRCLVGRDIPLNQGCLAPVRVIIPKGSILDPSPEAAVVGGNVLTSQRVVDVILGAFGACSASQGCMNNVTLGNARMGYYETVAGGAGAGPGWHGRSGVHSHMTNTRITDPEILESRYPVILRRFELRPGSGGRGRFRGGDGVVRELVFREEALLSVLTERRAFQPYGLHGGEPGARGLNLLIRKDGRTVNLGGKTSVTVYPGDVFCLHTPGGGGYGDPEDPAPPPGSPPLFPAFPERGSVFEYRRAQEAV", "assay": "Action of 5-oxo-L-prolinase on substrates (formation of ADP and amino acid)", "type": "biochemical", "details": "for Reaction with the enzyme in the presence of ATP (formation of ADP and cysteine): incubation with 5-oxo-L-prolinase and ATP, FIG. 2: 5 mM substrate", "method": "(§1) In the experiments the reaction mixtures were made up to contain (final volume 0.5 ml) 100 mM Na Hepes (Na salt of N-2-hydroxyethylpiperizine-N'-2ethanesulfonic acid) buffer (pH 8.0), 150 mM KCl, 8 mM MgCl2, 2 mM phosphoenolpyruvate, 5 mM ATP (adenosine triphosphate), pyruvate kinase, in excess, 20 micrograms of 5-oxoprolinase, and the substrate as indicated.\n(§2) The L- and D-isomers of 2-oxothiazolidine-4-carboxylate were synthesized by the method set out in Kaneko et al, Bull, Chem. Soc. (Japan) vol. 37, pp. 242-4 (1964) as modified by the method of Shah et al, Cancer Research vol. 39, pp. 3942-7 (1979). 5-Oxo-L-prolinase was isolated from rat kidney and freed of 5-oxoproline by gel filtration. Other chemicals and materials were obtained commercially.\n(§3) After incubation for 30 min. at 37° C., the reaction mixtures were treated with 0.1 volume of 1M HCl, and placed at 0° C. for 5 min.; and an equivalent volume of 1M 2-amino-2-hydroxylmethyl-1,3,-propanediol was added. Portions were analyzed for amino acids by use of a Durrum Model 500 amino acid analyzer. Cysteine was also determined in some experiments by reaction with 5,5'-dithiobis(2-nitrobenzoate (DTNB).\nAt the indicated intervals portions were analyzed for ADP by the method indicated in the Table footnote, and for cysteine by reaction with DTNB."}, "[2]": {"test_system": "5-oxoproline metabolism", "assay": "In vivo metabolism of 5-oxo-L-[14C]proline (respiratory 14CO2, urinary radioactivity)", "set-up": "species or system mice", "method": "(§4) The in vitro results showing that L-2-oxothiazolidine-4-carboxylate inhibits utilization of 5-oxoproline were confirmed by in vivo experiments. In the latter, animals were injected with 5-oxo-L-[^14 C]proline and the respiratory [^14 CO2 ] produced was collected and measured for several hours. […] However, L-2-oxothiazolidine-4-carboxylate is a much more efficient inhibitor.\n(§5) FIG. 3 depicts the inhibition of 5-oxoproline metabolism by L-2-oxothiazolidine-4-carboxylate. Mice fasted overnight were injected intraperitoneally with NaCl (Curve 1; open symbols; controls) or with Na L-2-oxothiazolidine-4-carboxylate (2.5 mmol/kilo) (Curve 2; closed symbols). After 10 min., the mice were injected subcutaneously with 5-oxo-L-[^14 C]proline (A) or with L-[^14 C]glutamate (B) (0.02 mmol; 1.1×10^6 cpm). The mice were then placed in metabolic chambers and the respiratory CO2 was collected in ethanolamine/methanol, 1:4 (vol/vol). In A, each curve represents the results on 3 animals; the points are mean values and the bars represent standard deviations from the mean. In B, each curve represents the average of closely-agreeing results obtained from 2 animals."}, "[3]": {"test_system": "metabolism of glutamate", "assay": "In vivo metabolism of L-[14C]glutamate (respiratory 14CO2)", "details": "mice, injection of L-[14C]glutamate", "method": "as §4, §5"}, "[4]": {"test_system": "hepatic glutathione", "assay": "Hepatic glutathione level after injection", "type": "in vivo, mice", "details": "for level of hepatic glutathione relative to controls: mice fasted overnight, intraperitoneal injection (Na salt, 6.5 mmol/kilo; D-isomer equivalent doses)", "method": "The effect of injecting mice with L-2-oxothiazolidine-4-carboxylate on the level of hepatic glutathione was studied. […] The maximal effect was observed about 4 hours after injection. […] These findings are indicative of in vivo formation of cysteine after administration of L-2-oxothiazolidine-4-carboxylate.\nMice fastened overnight were injected intraperitoneally with NaCl (controls; dashed line) or with Na L-2-oxothiazolidine-4-carboxylate (6.5 mmol/kilo). At intervals, the mice were sacrificed and the excised liver was homogenized in 5 volumes of 1% picric acid. After centrifugation, the protein-free supernatant solutions were analyzed for glutathione by the method of Tietze, Anal. Biochem 27, 502-22 (1969). Analyses were carried out in duplicate. In a number of instances, these values were checked by the 2-vinylpyridine procedure of Griffith, Anal. Biochem. 106; 207-12 (1980); good agreement between the two methods was observed. In the figure, the points are mean values and the bars indicate the average deviation from the mean. The numbers in parentheses give the number of animals used. The value for the controls was 4.40±0.9 umol/g."}, "[5]": {"test_system": "liver glutathione", "assay": "Liver glutathione in animals depleted of hepatic glutathione (acetoaminophenol)", "type": "in vivo", "details": "mice depleted of hepatic glutathione, compound given even two hours after acetoaminophenol", "method": "Administration of this compound therefore provides a way of getting cysteine into cells. One cannot give cysteine itself without complications since this amino acid is toxic extracellularly. However, when the L-oxothiazolidine compound is injected it enters the cell where it is split giving rise to cysteine within the cell. In a number of clinical situations, for example, after poisoning with excessive pain-killing drugs, e.g., those containing active ingredients known as N-acetyl-para-aminophenol, paracetamol, and acetaminophen, the liver glutathione levels decrease markedly. When cysteine is supplied to liver cells, additional glutathione can be synthesized and thus serve usefully in detoxifying the offending drug. Therefore, L-2-oxothiazolidine-4-carboxylate serves as an intracellular delivery system for cysteine and has potential as a therapeutic agent in situations in which there is depletion of liver glutathione. After acetoaminophenol is given to experimental animals such as mice, the liver glutathione declines rapidly because it is extensively utilized by reaction with the drug. […] For human treatment the L-isomer, preferably in the form of its neutral salt is administered directly into the gastro-intestinal tract or introduced intravenously."}, "[6]": {"target": "T1, 5-oxo-L-prolinase", "assay": "Inhibition of utilization of 5-oxo-L-proline (glutamate formation) by the purified enzyme", "type": "biochemical", "details": "1 mM 5-oxo-L-proline; under these conditions (1, 5, 10 mM)", "method": "as §1, §2, §3\nEnergy for the reaction is supplied by the cleavage of ATP. […] The ratio of ADP to cysteine produced increased with time due undoubtedly to the loss of cysteine due to oxidation."}, "[7]": {"details": "substrate 2 mM, 30 min at 37° C."}},
  "note": "Entries after “also recorded” stand apart in the source; their conditions may differ.",
  "data": [
    {"molecule": "O=C1CC[C@@H](C(=O)O)N1", "note": "[5-Oxo-L-proline, 5-oxo-L-proline]", "values": [
      {"measurement": "calculated Vmax value", "setting": "[1]; natural substrate compared with the L-isomer", "value": "higher than that found for the L-isomer"}
    ]},
    {"molecule": "O=C1NC[C@@H](C(=O)O)N1", "note": "[L-2-imidazolidone-4-carboxylate]", "values": [
      {"measurement": "Products Formed: ADP", "setting": "[1]; substrate 2 mM, 5 mM ATP, 20 micrograms enzyme, 30 min at 37° C., pH 8.0, pyruvate kinase-lactate dehydrogenase coupled assay", "value": 930, "unit": "nmol"},
      {"measurement": "Products Formed: Amino Acid", "setting": "[1]; substrate 2 mM, footnote f: less than 5 nmol", "value": 0, "unit": "nmol"}
    ]},
    {"molecule": "O=C1N[C@H](C(=O)O)CS1", "note": "[L-2-oxothiazolidine-4-carboxylate]", "values": [
      {"measurement": "apparent Km value", "setting": "[1]; compared with the natural substrate 5-oxo-L-proline", "value": "somewhat lower than that found for the natural substrate"},
      {"measurement": "Reaction with the enzyme in the presence of ATP (formation of ADP and cysteine)", "setting": "[1]; 5 mM ATP", "value": "rapid formation of ADP and cysteine"},
      {"measurement": "Products Formed: Amino Acid (after conversion to cystine)", "setting": "[1]; [7]", "value": 463, "unit": "nmol"},
      {"measurement": "Products Formed: Amino Acid (determined after reduction with KBH4 and reaction with iodoacetamide)", "setting": "[1]; [7]", "value": 466, "unit": "nmol"},
      {"measurement": "injected dose (radioactivity) excreted in urine", "setting": "[2]; animals treated with L-isomer and injected with 5-oxo-L-[14C]proline, none in urine of controls", "value": "about 16%"},
      {"measurement": "activity on a molar basis compared with L-2-imidazolidine-4-carboxylate (inhibition of 5-oxoproline metabolism in vivo)", "setting": "[2]; in vivo comparison", "value": "at least four times more active"},
      {"measurement": "formation of [14CO2] from injected 5-oxo-L-[14C]proline", "setting": "[2]; mice, Na salt 2.5 mmol/kilo intraperitoneally, 10 min before 5-oxo-L-[14C]proline s.c.", "value": "marked decrease"},
      {"measurement": "effect on the metabolism of glutamate", "setting": "[3]", "value": "does not have a significant effect"},
      {"measurement": "free cysteine in acid extracts of the livers", "setting": "[4]; amino acid analyses after reduction by dithiothreitol and derivatization with 2-vinylpyridine", "value": "No free cysteine was detected"},
      {"measurement": "level of hepatic glutathione relative to controls", "setting": "[4]", "value": "about twice those of the controls"},
      {"measurement": "liver glutathione after depletion", "setting": "[5]", "value": "restoration of normal hepatic glutathione levels"},
      {"measurement": "liver glutathione after depletion", "setting": "[5]; listed as L-isomer compound", "value": "an increase in liver glutathione occurs"}
    ]},
    {"molecule": "O=C1N[C@@H](C(=O)O)CS1", "note": "[D-2-oxothiazolidine-4-carboxylate]", "values": [
      {"measurement": "Reaction with the enzyme in the presence of ATP (formation of ADP and cysteine)", "setting": "[1]; 5 mM ATP, listed as D-isomer", "value": "absence of reaction; also recorded: No reaction was observed"},
      {"measurement": "Products Formed: Amino Acid (determined after reduction with KBH4 and reaction with iodoacetamide)", "setting": "[1]; substrate 5 mM, footnote e: less than 20 nmol", "value": 0, "unit": "nmol"},
      {"measurement": "inhibition of glutamate formation (in words)", "setting": "[6]", "value": "did not inhibit glutamate formation"},
      {"measurement": "level of hepatic glutathione relative to controls", "setting": "[4]", "value": "No such stimulation was observed"}
    ]}
  ]
}
